# Test system: Arabidopsis thaliana
# Assay: Auxin tolerance testing of stably transformed Arabidopsis thaliana
# Format: in vivo
# Details: 50 μL of 3.75 g ae/ha solution on one lower leaf, within five days
# Description: One of the auxin tolerance sequences, 129965 (SEQ ID NO:10), was selected for stable expression analysis using a model plant system, Arabidopsis thaliana. This required cloning of the GENEWARE® vector insert into a binary vector suitable for Agrobacterium transformation. Agrobacteriuni encoding the gene of interest as well as a selectable marker was then utilized to transform Arabidopsis plants. Transgenic plants derived from the first generation of seed (T1) were selected based on glufosinate resistance and subsequently tested for tolerance to auxin 4-amino-3,6-dichloropyridine-2-carboxylic acid.
# Plant growth and maintenance. Freshly harvested Arabidopsis thaliana (Columbia ecotype) seed was allowed to dry at least 7 days at room temperature in the presence of desiccant. Dried seed was sterilized with a 0.1% Triton X-100 (Sigma Chemical Co., St. Louis, Mo.) and 70% ethanol solution (3 min) using 95% ethanol as a wash (30 sec). After sterilization, seed was suspended in a 0.1% agarose (Sigma Chemical Co., St. Louis, Mo.) solution. The suspended seed was stored at 4° C. for 2 days to complete dormancy requirements and ensure synchronous seed germination (stratification).
# Sunshine Mix LP5 (Sun Gro Horticulture Inc., Bellevue, Wash.) was covered with fine vermiculite and subirrigated with Hoagland's solution (see Example 9) until wet. The soil mix was allowed to drain for 24 hours. […]
smiles,measurement,value
"Nc1cc(Cl)nc(C(=O)O)c1Cl [4-amino-3,6-dichloropyridine-2-carboxylic acid, reference compound]",auxin symptoms in wild type plants,"systemic symptoms of epinasty and leaf cupping, as well as meristem swelling and significant chlorosis"
